The source made the active and inactive calls. No cut-off for these calls is given here.
What follows are molecules tested on Hepatitis C virus NS3 protease (Hepatitis C virus) (assay: Inhibitory activity against Protease using replicon assay in rats at 50 uM concentration; Not active). Conditions: Rattus norvegicus.

Compound	inhibition
CCCC(NC(=O)[C@@H]1[C@H]2CCC[C@H]2CN1C(=O)[C@@H](NC(=O)[C@H](O)C(C)C)C(C)C)C(=O)C(=O)Nc1ccccc1 (some centres not stated)	inactive
CCCC(NC(=O)[C@@H]1[C@H]2CCC[C@H]2CN1C(=O)[C@@H](NC(=O)OC(C)C)C(C)(C)C)C(=O)C(=O)Nc1ccccc1 (some centres not stated)	inactive
CCCC(NC(=O)[C@@H]1[C@H]2CCC[C@H]2CN1C(=O)[C@@H](NC(=O)[C@H](O)C(C)C)C(C)C)C(=O)C(=O)NC1CC1 (some centres not stated)	inactive

Each molecule was assayed on Hepatitis C virus NS3 protease (Hepatitis C virus) (assay: Inhibitory activity against Protease using replicon assay in rats at 50 uM concentration). Conditions: Rattus norvegicus.

Compound	inhibition
CCCC(NC(=O)[C@@H]1[C@H]2CCC(F)(F)[C@H]2CN1C(=O)[C@@H](NC(=O)[C@H](O)C(C)C)C(C)C)C(=O)C(=O)NC1CC1 (some centres not stated)	inactive
CCCC(NC(=O)[C@@H]1[C@H]2CCC(F)(F)[C@H]2CN1C(=O)[C@@H](NC(=O)OC(C)C)C(C)(C)C)C(=O)C(=O)N[C@@H](C)c1ccccc1 (some centres not stated)	51%
CCCC(NC(=O)[C@@H]1[C@H]2CCC(F)(F)[C@H]2CN1C(=O)[C@@H](NC(=O)OC(C)C)C(C)C)C(=O)C(=O)N[C@@H](C)c1ccccc1 (some centres not stated)	22%
CCCC(NC(=O)[C@@H]1[C@H]2CCC[C@H]2CN1C(=O)[C@@H](NC(=O)OC(C)C)C(C)C)C(=O)C(=O)N[C@@H](C)c1ccccc1 (some centres not stated)	7%

Source: ChEMBL document CHEMBL1148419, “Novel P4 truncated tripeptidyl alpha-ketoamides as HCV protease inhibitors” (Bioorg Med Chem Lett, 2004)
